Literature values in patent US20230167447A1, “Compositions for FNIP1/FNIP2 Gene Modulation and Methods Thereof” (Genetic Intelligence, Inc, priority 2021, published 2023).

Tested on: ALS patients

Q: With `CC1=NN(c2ccccc2)C(=O)C1` [Edaravone, edaravone] as the compound, how does the “decline in physical function in ALS patients” value read?
A: slows the decline in physical function

Q: And the “subset of patients for which effective” value?
A: around 7%
